Active and inactive are the calls of the source. The rule behind the calls is not given here.
biological target: Prostaglandin E2 receptor EP2 subtype (Homo sapiens) (UniProt P43116); assay: compounds shifting PGE2 potency at EP2 – cell-based, human EP2, PGE2 EC50 shift, dose response (AID 1421); conditions: EP2-expressing cells, PGE2 EC50 shift by compound
Sequence (P43116 whole entry, looked up): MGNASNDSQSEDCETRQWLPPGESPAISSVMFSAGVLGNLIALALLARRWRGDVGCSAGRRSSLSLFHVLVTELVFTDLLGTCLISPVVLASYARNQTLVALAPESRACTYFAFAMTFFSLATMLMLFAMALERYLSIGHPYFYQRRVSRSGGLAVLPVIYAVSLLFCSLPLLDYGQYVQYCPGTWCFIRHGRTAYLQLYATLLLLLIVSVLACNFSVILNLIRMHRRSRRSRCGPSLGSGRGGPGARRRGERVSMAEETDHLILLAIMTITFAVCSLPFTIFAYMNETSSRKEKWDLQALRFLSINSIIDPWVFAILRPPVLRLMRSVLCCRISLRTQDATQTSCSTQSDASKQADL

SMILES | outcome
CCC1COC(c2cccn2Cc2ccc(Cl)cc2)=N1 (stereo unspecified) | active
Cc1nn2c(c1-c1ccccc1)N=C(c1ccco1)CC2c1ccccc1 (stereo unspecified) | active
O=C(O)c1ccc(-c2nc(-c3cccc(C(F)(F)F)c3)cs2)cc1 | active
CCc1ccc(NC(=S)N(Cc2ccccc2)Cc2ccccn2)cc1 | active
COc1nc(-c2ccccc2)nnc1-c1ccccc1 | active
CCSc1cc(N2CCOCC2)nc(-c2ccc(Cl)cc2)n1 | active
COc1ccc(-c2cc(C(F)(F)F)nc(N3CCOCC3)n2)cc1OC | active
COc1cccc2cc(/C(=N/O)c3ccccc3)oc12 | active
O=C(Nc1ccccc1N1CCN(c2ccccc2)CC1)C12CC3CC(CC(C3)C1)C2 | active
C/C(=N\O)C(=O)OC1CC(C)CCC1C(C)C (stereo unspecified) | active
COc1cc(-c2nc(-c3cccc(C)c3)no2)cc(OC)c1OC | active

same assay, conditions: EP2-expressing cells, PGE2 EC50 shift by compound; measured here: PGE2 EC50 at 6.7 uM compound

SMILES | PGE2 EC50 with compound
COC(=O)c1sccc1NC(=O)c1cc2c(s1)CCCC2 | 1.01 nM
COC(=O)c1ccc(-c2ccco2)n1Cc1cccc(C)c1 | 2.63 nM
CCOC(=O)c1c(-c2ccc(C)cc2)csc1NC(=O)CCN1CCOCC1 | 1.21 nM
Cn1c(C(=O)N2CCCc3ccccc32)cc2sccc21 | 2.41 nM
CCC1COC(c2cccn2Cc2ccc(Cl)cc2)=N1 (stereo unspecified) | 1.27 nM
c1ccc(CCc2ccccc2-c2nc(-c3cccnc3)no2)cc1 | 0.84 nM
CC1=C[N+](=O)c2ccccc2[N+]1=O | 0.94 nM
COC(=O)c1nc(NC(=O)C(C)(C)C)n[nH]1 | 2.41 nM
Brc1ccc(Cn2c(-c3ccc(Br)o3)nc3ccccc32)o1 | 2.59 nM
C=CCOc1c(Br)cc(/C=N/n2c(CC)n[nH]c2=S)cc1Br | 0.81 nM
O=c1[nH]c(SCc2cccc(Cl)c2)nc2c1CCCC2 | 0.77 nM
Cc1nn2c(c1-c1ccccc1)N=C(c1ccco1)CC2c1ccccc1 (stereo unspecified) | 0.8 nM
Cn1c(=O)[nH]c(=O)c2c1nc(N1CCCCCC1)n2Cc1cccc2ccccc12 | 2.64 nM
CCOC(=O)c1c(NC(=O)CN2CCN(C(=O)c3ccco3)CC2)sc2c1CCCC2 | 0.85 nM
CCOP(=O)(OCC)c1nc(-c2ccc(C)cc2)oc1NCc1ccccc1 | 0.83 nM
CC1=Nc2ccccc2/C1=C/c1sc(=S)n(-c2cccc(C(=O)O)c2)c1O | 0.4 nM
Oc1ccc(/C=N/N(Cc2ccccc2)c2ccccc2)cc1 | 0.76 nM
O=C(O)c1ccc(-c2nc(-c3cccc(C(F)(F)F)c3)cs2)cc1 | 1.19 nM
O=C(/C(=C/O)N=Nc1ccccc1Cl)c1ccccc1 | 2.68 nM
Cc1noc(C)c1CSc1nc2sc3c(c2c(=O)n1C)CCCC3 | 1.46 nM
Nc1cc(Cl)ccc1Oc1ccc(Cl)cc1 | 0.75 nM
O=c1cc(N2CCCCC2)c(-c2ccccc2)nn1Cc1ccccc1Cl | 0.65 nM
N#CC1=C(S)N(c2ccccc2)C2(CCCCC2)NC1=O | 1.12 nM
O=C(Nc1cc(S(=O)(=O)Nc2ccc(Cl)cc2)ccc1N1CCCCC1)c1ccc(F)cc1Cl | 0.87 nM
CCOC(=O)c1cc2sc(C)cc2n1C(C)C(=O)OCC (stereo unspecified) | 0.84 nM
CCCCN1C=C(C(=O)OC)C(c2ccccc2Cl)C(C(=O)OC)=C1 | 2.72 nM
CC1=CC2C(C(C)C)CCC(C)(O)C2CC1 (stereo unspecified) | 0.68 nM

SMILES | PGE2 EC50 with compound
CCc1nnc2n1N=C(c1ccc(-c3cc(Cl)ccc3Cl)o1)CS2 | 0.89 nM
CCn1c2ccc(Cl)cc2c2nc3ccccc3nc21 | 0.98 nM
CN(CC(=O)Nc1ccccc1-c1ccccc1)Cc1ccccc1Cl | 0.95 nM
c1ccc(Cc2nc3ccccc3n2Cc2ccccc2)cc1 | 0.81 nM
Cc1cccnc1N(C(=O)Nc1ccccc1)C1=NCC(C)(C)S1 | 0.57 nM
CCOC(=O)CSc1ncnc2c1sc1nc(N3CCOCC3)c3c(c12)CCCC3 | 0.32 nM
COC(=O)C(C)Sc1ncnc2c1nnn2-c1ccc(F)cc1 (stereo unspecified) | 1.11 nM
COc1cc2nc(N3CCN(C(=O)C4CCCO4)CC3)nc(N)c2cc1OC (stereo unspecified) | 0.85 nM
COC(=O)CSc1nc(Cc2ccccc2)nc2ccccc12 | 2.72 nM
CC1=CC2C(CC1=O)C(C)=CCC2C(C)C (stereo unspecified) | 0.86 nM
O=C(COc1ccccc1)Nc1cc(C(F)(F)F)ccc1N1CCCC1 | 0.91 nM
Cc1ccc(C)n1-c1ccc(N(C)C)cc1 | 0.75 nM
Cc1ccc(N=Nc2c(N)[nH]n3c(=O)c4c(nc23)CCCC4)cc1 | 0.81 nM
CCn1c2ccc(F)cc2c2nc3ccccc3nc21 | 0.86 nM
CCCC(=O)C1=C(O)C(C(=O)OC)C(C)(C)CC1=Nc1cccc2ccccc12 (stereo unspecified) | 1.53 nM
Cc1noc2ncnc(Sc3c(Cl)cccc3Cl)c12 | 0.75 nM
CC(=O)Oc1ccc2ccccc2c1C(NC(=O)Cc1ccccc1)c1ccccc1 (stereo unspecified) | 1.1 nM
CC(C)CCn1c(-c2nonc2N)nc2ccccc21 | 1.49 nM
CCOc1cc(S(=O)(=O)NCCc2cccc(C)c2)c(OCC)cc1-n1cnnn1 | 1.21 nM
CCCC1=C(C(=O)OCC)C(c2cccs2)C(C#N)=C(N)O1 (stereo unspecified) | 0.82 nM
COC(=O)c1c(NC(NC(=O)C(C)C)C(Cl)(Cl)Cl)sc2c1CCCC2 (stereo unspecified) | 1 nM
COc1cc(OC)c2c(OC)c(-c3ccc4c(c3)OCO4)c(=O)oc2c1 | 1.43 nM
NC(=O)COc1ccc(C23CC4CC(CC(C4)C2)C3)cc1 | 2.56 nM
Cc1nn2c(N3CCN(C(=O)c4ccco4)CC3)cc(C(C)(C)C)nc2c1-c1ccccc1 | 1.15 nM
CCOC(=O)Nc1sc2c(c1C(=O)OCC)CCC2 | 0.84 nM
COc1ccc(OCC(=O)NC(=S)Nc2ccc3c4c(cccc24)CC3)cc1 | 2.85 nM
CCc1ccc(NC(=S)N(Cc2ccccc2)Cc2ccccn2)cc1 | 2.7 nM

SMILES | PGE2 EC50 with compound
COc1nc(-c2ccccc2)nnc1-c1ccccc1 | 1.05 nM
Cc1ccc(Oc2nc(-c3ccccc3)ncc2S(C)(=O)=O)cc1 | 1.12 nM
Cc1ccc(C2CC2c2n[nH]c(=S)n2-c2ccc(Cl)cc2)cc1 (stereo unspecified) | 1.23 nM
CCOc1cccc(CNc2ccc(O)cc2)c1OCc1ccccc1Cl | 0.62 nM
COc1ccc2c(C)cc(SCC(=O)Nc3ncc(Cl)cc3Cl)nc2c1 | 1.52 nM
C=CCc1cc(C=O)cc(OCC)c1OCc1ccc(Cl)cc1 | 1.29 nM
C=CCOc1nc(-c2ccncc2)nc2ccccc12 | 2.48 nM
Cc1cnn(-c2nc(-c3ccccc3)cc(-c3ccccc3)n2)c1 | 0.95 nM
CCSc1cc(N2CCOCC2)nc(-c2ccc(Cl)cc2)n1 | 0.69 nM
O=c1c2ccccc2c(-c2ccccc2)nn1Cc1c(Cl)cccc1Cl | 0.84 nM
CC(OC(=O)c1oc2ccccc2c1COc1ccccc1)C(=O)NC(N)=O (stereo unspecified) | 2.83 nM
Cc1ccccc1Nc1c(-c2ccccn2)nc2ccccn12 | 1.55 nM
C=CCc1cccc(C=Nc2cc(Br)ccc2O)c1O | 0.89 nM
Cc1noc(C)c1CSc1ncnc2sc3c(c12)CCCCC3 | 1.22 nM
CCC(c1nnnn1C1CCCC1)N(Cc1cccs1)Cc1cc2cc(C)ccc2[nH]c1=O (stereo unspecified) | 0.33 nM
CCCCCCCCCc1ccc(O)cc1 | 0.74 nM
COC(=O)c1ccc(CSc2ncnc3c2oc2ccccc23)o1 | 2.45 nM
O=C(O)CCN1C(=O)/C(=C/c2cn(-c3ccccc3)nc2-c2cccs2)SC1=S | 0.33 nM
Nc1ccc(SC(F)(F)F)cc1C(=O)c1ccccc1 | 2.39 nM
Cc1cc(C(=O)Nc2cccc(/C=C/C(=O)O)c2)c(C)o1 | 0.36 nM
C=CCc1cc(C=O)cc(OC)c1OCc1c(Cl)cccc1Cl | 0.59 nM
COc1ccc2ccc(=O)oc2c1CC=C(C)C | 1.13 nM
O=S(=O)(c1cccs1)N1CN(Cc2cccs2)c2nc3ccccc3nc21 | 1.64 nM
Cn1c(=O)c2c(nc(SCC(=O)N3CCc4ccccc4C3)n2C)n(C)c1=O | 1.51 nM
COc1ccc(-c2cc(C(F)(F)F)nc(N3CCOCC3)n2)cc1OC | 1.53 nM
O=C(CSc1nc2ccccc2o1)Nc1cc(C(F)(F)F)ccc1N1CCOCC1 | 0.77 nM
Cc1cccc(OCc2n[nH]c(=S)n2Cc2ccccc2)c1 | 1.31 nM

SMILES | PGE2 EC50 with compound
O=S(=O)(c1ccccc1)N(Cc1nc(-c2ccccc2)no1)C1CCCCC1 | 1.26 nM
CCN(CC)c1ccc(/C=C2\C(=O)c3ccc(C(=O)O)cc3C2=O)cc1 | 1.04 nM
Cc1ccc(Nc2cc(C)nc3c(C)ccc([N+](=O)[O-])c23)cc1 | 0.73 nM
O=C(O)CSc1cc(-c2ccccc2)nc2ccccc12 | 2.55 nM
Cn1c(=O)[nH]c(=O)c2c1nc(CN1CCN(c3ccccc3F)CC1)n2CCCc1ccccc1 | 0.83 nM
COc1cccc2cc(/C(=N/O)c3ccccc3)oc12 | 1.51 nM
CCN(CC)P(=O)(Nc1ccccc1Br)c1ccc(N(C)C)cc1NC(=O)c1ccco1 (stereo unspecified) | 1.19 nM
O=C(CSc1nc2ccccc2o1)Nc1ccccc1N1CCCCCC1 | 0.78 nM
COc1cc(C)c(C(=O)Oc2cc(C)c(C(=O)O)c(O)c2C)c(OC)c1C | 0.98 nM
O=C(c1cc2sccc2n1Cc1ccc(F)cc1)N1CCCc2ccccc21 | 1.56 nM
O=C(Nc1ccccc1N1CCN(c2ccccc2)CC1)C12CC3CC(CC(C3)C1)C2 | 2.52 nM
CCOC(=O)c1c(-c2ccccc2)oc2ccc(OC)cc12 | 1.04 nM
CCc1nc2c(cnn2-c2ccc(Cl)cc2)c(=O)n1-c1ccc(OC)cc1 | 0.85 nM
C/C(=N\O)C(=O)OC1CC(C)CCC1C(C)C (stereo unspecified) | 0.88 nM
CC(C)c1nc(N2CCN(C(=O)c3ccccc3)CC2)c(C#N)c2c1COC(C)(C)C2 | 0.97 nM
CCOc1ccc(Cc2n[nH]c(=S)n2Cc2ccccc2)cc1 | 0.69 nM
Cn1c(=O)[nH]c(=O)c2c1nc(CN1CCN(c3cccc(Cl)c3)CC1)n2CCCc1ccccc1 | 1.19 nM
COc1cc(NC(=S)NC(=O)c2cc(C)cc(C)c2)ccc1NC(=O)c1cccs1 | 2.54 nM
CCOC(=O)c1c(C=O)c(C)n(Cc2ccc(C)cc2)c1C | 1.31 nM
COc1cc(-c2nc(-c3cccc(C)c3)no2)cc(OC)c1OC | 1.14 nM
CCCCOc1c(Br)cc(/C=N/O)cc1OCC | 0.93 nM
O=C(COc1ccccc1)Nc1ccccc1N1CCN(c2ccccc2)CC1 | 1.48 nM
Cc1cc(C)n(-c2nc(C)nc3c2cnn3-c2ccccc2)n1 | 1.43 nM
CCN(CC)C(=O)CN(c1cc2c(cc1OC)oc1ccccc12)S(=O)(=O)c1ccc(C)cc1 | 1.2 nM

Reference: PubChem BioAssay AID1421 (Emory University Molecular Libraries Screening Center, 2008)
